Source: patent US4820690A (G. D. Searle & Co., priority 1984, dated 1989)

How the values were obtained:
[1] = system: cysteamine induced duodenal ulcers; assay: Healing of cysteamine-induced perforating duodenal ulcers, therapy in drinking water for 50 days (Example 1); format: in vivo; conditions: rats, 50 days therapy from day 7 after cysteamine, urogastrone 6 μg./rat/day, cimetidine 100 mg./rat/day; for Healed (number of healed ulcers) / Unhealed (number of unhealed ulcers): n 15
Protocol: Rats with perforating duodenal ulcers confirmed by laparotomy were selected from a large number and given two doses of cysteamine as described in the following protocol. These animals were randomly assigned to treatment groups of 15 rats each. The protocol utilises 2 doses of cysteamine (300 mg./kg. and 150 mg./kg., 6 hours apart). This procedure produces deep perforating duodenal ulcers in a majority of the rats injected. The "chronic" ulcers heal extremely slowly. Previous studies have shown that after 50 days only 20% have healed as judged by reepithelialization of the surface. Even after 200 days, 36% remain unhealed. In order to provide for a reliable experimental protocol, rats given 2 doses of cysteamine are subjected to an intra-abdominal inspection by laparotomy 5 days after induction. Only those rats in which perforation of the ulcer to the duodenal external serosal surface has occurred are included in the experimental groups. Rats with non-perforating ulcers are discarded. Therapy by drug or placebo then begins on day 7 post-induction.On termination after a standardised period of (21 to 50 days) therapy the duodenum is removed from all rats, fixed and stained with PAS and the number of healed and unhealed ulcers determined by macroscopic examination of the mucosal surface with a stereomicroscope. Healing is defined as restoration of complete mucosal integrity by reepithelialisation of the surface. This is confirmed by subsequent histology. In this example, therapy commenced on day 7 following cysteamine and continued for 50 days.

[2] = system: acid secretion in the stomach; conditions: administered by a systemic route; cited from earlier work
gastrointestinal mucosa = conditions: administered concurrently with or prior to the injurious stimuli; cited from earlier work
gastric acid secretion [3] = assay: Histamine stimulated acid secretion in beagle dogs with Heidenhain pouches (Example 3); format: in vivo, dog; conditions: Heidenhain pouch dogs; for effect on acid secretion, intravenous administration: intravenously administered
Protocol: Male beagle dogs (14-22 kg.) were prepared with isolated Heidenhain (vagal denervated) pouches derived from the fundic area of the stomach by the method of Rudick et al, J. Surg. Res. 7: 383, 1967. Animals were allowed 4-6 weeks to recover from surgery and given a 2-3 month training period to standardise laboratory behaviour and secretory responses. The dogs were fasted for 23 hours prior to use, the pouch then flushed with warm water and histamine infused subcutaneously at a rate of 10 μg./min. Pouch secretions were collected every 15 minutes, their volume measured and aliquots titrated to pH 7.0 with 100 mM NaOH.

[4] = system: cysteamine induced duodenal ulcers; assay: Healing of cysteamine-induced duodenal ulcers, therapy by oral gavage for 21 days, assessed blind by 2 observers (Example 2); format: in vivo; conditions: rats, 10 μg./rat/dose by oral gavage three times a day
Protocol: The protocol utilises 2 doses of cysteamine (300 mg./kg. and 150 mg./kg., 6 hours apart).
In order to provide for a reliable experimental protocol, rats given 2 doses of cysteamine are subjected to an intra-abdominal inspection by laparotomy 5 days after induction. Only those rats in which perforation of the ulcer to the duodenal external serosal surface has occurred are included in the experimental groups. Rats with non-perforating ulcers are discarded. Therapy by drug or placebo then begins on day 7 post-induction.On termination after a standardised period of (21 to 50 days) therapy the duodenum is removed from all rats, fixed and stained with PAS and the number of healed and unhealed ulcers determined by macroscopic examination of the mucosal surface with a stereomicroscope. Healing is defined as restoration of complete mucosal integrity by reepithelialisation of the surface.
In this Example the same protocol was followed as in Example 1 but therapy was continued for only 21 days after commencing on day 7 following ulcer induction.

[5] = system: gastrointestinal epithelial proliferation; assay: Crypt cell production rate of gastrointestinal epithelium in rats on total parenteral nutrition (Example 4); format: in vivo, rat; conditions: intragastric infusion of similar or much larger doses than i.v.
Protocol: These animals have permanent indwelling i.v. catheters connected to infusion pumps via 360° swivel joints which allow normal mobility of the rats within their cages. A complete parenteral food mixture is infused through the catheters at a rate of 60 ml./rat/24 h. The animals are allowed water in the normal way but no food by mouth.
Epithelial cell turnover in these experiments was determined as the crypt cell production rate (CCPR) at each site examined. CCPR was defined as the number of new cells produced per mucosal crypt per hour (for method of determination see Al Nafussi and Wright, Virch. Arch. Cell Pathol. 40: 63, 1982).
Infusion was continued for 10 days.

gastric acid secretion [6] = conditions: administered intravenously to animals; cited from earlier work

Molecule	Percentage Rate (healed) [1]	Healed (number of healed ulcers) [1]	Unhealed (number of unhealed ulcers) [1]	protection of the gastrointestinal mucosa against damaging stimuli and ulcer formation (gastrointestinal mucosa)	effect on acid secretion, intravenous administration (gastric acid secretion [3])	activity in inhibiting acid secretion, beta- versus gamma-urogastrone (gastric acid secretion [6])	other results
CN/C(=N/CCSCc1nc[nH]c1C)NC#N [Cimetidine, reference compound]	40%	6	9				
Urogastrone: active form of human urogastrone, polypeptide hormone of 53 amino acids; recombinant derived, produced by microbial methods	43%	6	8	protect the gastrointestinal mucosa	inhibited acid secretion	equal activity	inhibition of acid secretion in the stomach of humans [2]: inhibit acid secretion; time to peak inhibition of the acid secretion response to histamine (gastric acid secretion [3]; after intravenous bolus injection): ≤ 30 min; dose required to produce a 50% inhibition of acid secretion (gastric acid secretion [3]; intravenous bolus dose, histamine 10 μg./min s.c., from log-linear dose response regression plots): 0.27 µg/kg; effect on acid secretion, oral administration (gastric acid secretion [3]; single oral solution dose, even at 4 mg. (approximately 200 μg./kg.)): no effect on acid secretion; Percentage healed, observer (1) [4]: 36%; Percentage healed, observer (2) [4]: 23%; Healed, observer (1) ([4]; n 22): 8; Unhealed, observer (1) ([4]; n 22): 14; Unhealed, observer (2) ([4]; n 22): 17; effect on gastrointestinal epithelial proliferation, intragastric infusion [5]: no effect
gamma-urogastrone: 52 amino acid form that differs from beta-urogastrone only in lacking the carboxy-terminal arginine residue (NSDSECPLSHDGYCLHDGVCMYIEALDKYACNCVVGYIGERCQYRDLKWWEL; Epidermal growth factor; UniProt P01133 971-1022, looked up, fragment)						equal activity	
mEGF: epidermal growth factor from mouse salivary glands, polypeptide of 53 amino acids resembling beta-urogastrone (NSYPGCPSSYDGYCLNGGVCMHIESLDSYTCNCVIGYSGDRCQTRDLRWWELR; Epidermal growth factor; UniProt P01132 977-1029, looked up) [reference compound]				protect the gastrointestinal mucosa	inhibited acid secretion		
